Drawing on PMC11785093 (bioRxiv, 2025), this text covers Kd for two compounds.

The target in test [1] is T1, DDB1 (Homo sapiens, UniProt Q16531). Nature of the test: SPR. It is filed as binding. As to conditions: read-out: estimated KD; biotinylated protein immobilised; pH […] °C, […] DMSO.
In test [2] the target is T1, DDB1. Nature of the test: SPR. The settings on record: biotinylated protein immobilised; pH […] °C, […] DMSO; site at W1047, Y1114. It is filed as binding.

SMILES strings stand for the structures. Read-outs that look alike come from different tables or passages of the source.

T1 sequence (Q16531 2-1140): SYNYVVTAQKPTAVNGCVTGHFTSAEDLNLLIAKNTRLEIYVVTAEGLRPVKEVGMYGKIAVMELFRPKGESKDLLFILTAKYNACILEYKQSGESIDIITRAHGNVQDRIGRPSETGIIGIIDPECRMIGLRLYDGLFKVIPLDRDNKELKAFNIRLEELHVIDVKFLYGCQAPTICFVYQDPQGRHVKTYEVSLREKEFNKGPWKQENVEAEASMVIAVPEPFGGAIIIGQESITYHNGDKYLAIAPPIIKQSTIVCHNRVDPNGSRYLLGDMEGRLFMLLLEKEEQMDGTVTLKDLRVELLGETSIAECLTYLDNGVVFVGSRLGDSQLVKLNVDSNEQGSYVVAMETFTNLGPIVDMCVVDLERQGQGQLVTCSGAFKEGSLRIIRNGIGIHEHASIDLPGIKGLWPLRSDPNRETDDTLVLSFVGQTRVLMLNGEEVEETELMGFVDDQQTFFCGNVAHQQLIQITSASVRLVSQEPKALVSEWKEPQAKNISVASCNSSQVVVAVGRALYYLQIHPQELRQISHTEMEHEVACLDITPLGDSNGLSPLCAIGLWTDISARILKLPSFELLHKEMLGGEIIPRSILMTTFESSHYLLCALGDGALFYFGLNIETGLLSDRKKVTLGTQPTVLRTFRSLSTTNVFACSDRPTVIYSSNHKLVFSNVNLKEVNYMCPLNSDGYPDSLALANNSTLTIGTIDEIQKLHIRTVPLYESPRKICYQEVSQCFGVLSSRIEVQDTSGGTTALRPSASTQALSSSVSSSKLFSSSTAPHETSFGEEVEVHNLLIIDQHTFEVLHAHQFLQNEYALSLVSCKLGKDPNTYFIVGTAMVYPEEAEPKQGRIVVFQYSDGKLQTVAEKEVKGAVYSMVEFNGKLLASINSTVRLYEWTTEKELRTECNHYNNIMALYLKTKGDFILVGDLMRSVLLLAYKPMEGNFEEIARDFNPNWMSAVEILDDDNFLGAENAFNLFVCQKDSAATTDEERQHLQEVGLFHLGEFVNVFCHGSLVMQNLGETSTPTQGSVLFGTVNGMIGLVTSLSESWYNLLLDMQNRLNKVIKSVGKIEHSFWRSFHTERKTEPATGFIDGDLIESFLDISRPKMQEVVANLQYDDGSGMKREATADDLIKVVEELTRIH

Consider `CCOc1cccc([C@H]2CC(=O)Nc3c2c(C)nn3-c2ccc3nncn3n2)c1` [(R)-XS381952], for which the Kd – broadly, a measure of binding affinity in units of concentration – on DDB1 [1] was greater than 73000 nM.
Regarding `CCOc1cccc([C@@H]2CC(=O)Nc3c2c(C)nn3-c2ccc3nncn3n2)c1` [(S)-XS381952], the Kd on DDB1 [2] amounted to 2000 nM.
